“And” between values parts separate entries of the source, which are not always exact repeats. Equal entries are not always repeated. Where two headings read alike, the source gives them in different places. Blank lines part the entries; values can stand above or below the compound they belong to.
Columns and labels:
[1] = tested on: transglutaminase (TGase I); test: Transglutaminase (Tgase) ELISA assay in cultured keratinocytes with retinol and boosters; assay type: cell-based, human; conditions: for TG as % C, Compd 3: Compound 3 alone; for TG as % C, Compd 3 / TG as % C Compd 1 / TG as % C Compd 2: concentration one log below IC20; for IC20: IC20 (80% of control); for Tgase levels (Mean): with 10^-7 M retinol
[2] = tested on: ARAT; test: Assay for ARAT activity, bovine RPE microsomes (to identify B1); assay type: biochemical; conditions: for % Inhibition ARAT (100 jm): compound 100 jm; for % Inhibition ARAT (10 jm): compound 10 jm
[3] = in the presence of 10^-7M retinol
[4] = compound tested individually in the presence of 10^-7 M retinol
[5] = Compound 1 alone, in the presence of 10^-7M retinol
[6] = Tgase inhibition, compound tested individually in the presence of 10^-7 M retinol, read-out: IC50
[7] = B1 table, booster concentration which with 10^−7 M retinol inhibits TGase by 50%, same values in the 19th table (Molar), read-out: Overall TG (IC 50)
[8] = Compound 2 alone, in the presence of 10^-7M retinol

Compound: O=c1c2cccc3cccc(c32)c2nc3ccccc3n12 [7H-Benzimidazo[2,1-a]Benz[de]-isoquinolin-7-one]
TG as % C, Compd 3 [1, 3]: 94 % C | IC20 [1, 4]: 0.469 µM

TG as % C Compd 1 [1, 5]: 81 % C | Tgase levels (Mean) ([1]; booster 1.6E−04 Molar): 58.1 % of control | Tgase levels (Mean) ([1]; booster 1.78E−05 Molar): 104 % of control | Tgase levels (Mean) ([1]; booster 1.79E−9 Molar): 82 % of control | Tgase levels (Mean) ([1]; booster 1.98E−06 Molar): 110 % of control | Tgase levels (Mean) ([1]; booster 2.19E−09 Molar): 88.6 % of control | Tgase levels (Mean) ([1]; booster 4.39E−08 Molar): 127.3 % of control | Tgase levels (Mean) ([1]; booster 5.33E−05 Molar): 95.4 % of control | Tgase levels (Mean) ([1]; booster 5.93E−06 Molar): 129 % of control | Tgase levels (Mean) ([1]; booster 6.58E−07 Molar): 92.8 % of control | Tgase levels (Mean) ([1]; booster 8.78E−09 Molar): 119 % of control | TG as % C Compd 1 ([1]; compound 1 alone, with retinol): 123 % C and 95 % C and 106 % C
Compound: CCCCCCCC(=O)OC[C@H](COP(=O)(O)OCCN)OC(=O)CCCCCCC [1,2-dioctanoyl-sn-glycero-3-phosphoethanolamide]

Compound: CCCCC/C=C\C/C=C\CCCCCCCC(=O)NCCCN(C)C [Linoleamidopropyl Dimethylamine]
% Inhibition ARAT (100 jm) [2]: 69% +/− 18

Compound: Oc1ccc2ccccc2n1 [Hydroxyquinoline (Carbostyril), 2-Hydroxyquinoline(Carbostyril)]
IC50 ([1]; B5 table, with 10^−7 M retinol, read-out: Overall TG (IC 50)): 364 µM | TG as % C, Compd 3 [1, 3]: 95 % C | IC20 [1, 4]: 170 µM | IC50 [1, 6]: 364 µM

Compound: Alpha-Ionone
IC50 [1, 7]: 927 µM | IC20 [1, 4]: 142 µM | IC50 [1, 6]: 927 µM | TG as % C Compd 1 ([1]; compound 1 alone, with retinol): 101 % C

Compound: CCCCC/C=C\C/C=C\CCCCCCCC(=O)NCCO [Linoleoyl Monoethanolamide]
IC50 [1, 7]: 16.1 µM | IC20 [1, 4]: 14.8 µM | IC50 [1, 6]: 16.1 µM

% Inhibition Overall TG (—ROH/RE) ([1]; % (booster+retinol inhibition/control inhibition) − % (ROH inhibition/control inhibition)): 22% | TG as % C Compd 1 ([1]; compound 1 alone, with retinol): 99 % C
Compound: Dimethyl Imidazolidinone

Compound: CCCCC/C=C/C/C=C/CCCCCCCC(=O)NC(C)c1ccccc1 (stereo not shown) [Melinamide, reference compound]
% Inhibition ARAT (100 jm) [2]: 64% +/− 15

Compound: CCCCCCCCCCC(O)C(=O)NCCO (stereo not shown) [Hydroxyethyl-2-Hydroxy-C12 Amide, N-Hydroxyethyl-2-hydroxydodecyl amide]
IC50 [1, 7]: 32.9 µM | IC20 [1, 4]: 24 µM | IC50 [1, 6]: 32.9 µM

Compound: CCCCC/C=C\C/C=C\CCCCCCCC(=O)NCCO [Linoleoyl Monoethanolamide (LAMEA)]
TG as % C, Compd 3 [1, 3]: 127 % C

IC50 [1, 7]: 32.5 µM | IC50 [1, 6]: 32.5 µM | TG as % C Compd 1 ([1]; compound 1 alone, with retinol): 110 % C | TG as % C Compd 1 ([1]; compound 1 alone, with retinol, listed as Caster oil MEA): 96 % C
Compound: Castor Oil MEA

TG as % C, Compd 3 [1, 3]: 95 % C
Compound: CCCCCCCCCCCCCCCC(=O)NCCO [Palmitamide Monoethanolamide]

Compound: CC(C)=CCCC(C)=CCCC(C)=CCO [Farnesol]
% Inhibition ARAT (10 jm) [2]: 23% +/− 18 | % Inhibition ARAT (100 jm) [2]: 53% +/− 18 | TG as % C, Compd 3 [1, 3]: 118 % C | IC20 [1, 4]: 78.2 µM | TG as % C Compd 1 ([1]; compound 1 alone, with retinol): 98 % C

Compound: CCCCCCCCCCCCCCCC(=O)O [Hexadecanoic acid]
TG as % C Compd 2 ([1]; compound 2 alone, with retinol): 95 % C

Compound: CC/C=C\C/C=C\C/C=C\CCCCCCCC(=O)O [Linolenic Acid]
TG as % C, Compd 3 [1, 3]: 208 % C | IC20 [1, 4]: 121 µM

Compound: CCCCCCCCCCCCCC(=O)N(C)CC(=O)O [Myristoyl Sarcosine]
% Inhibition ARAT (100 jm) [2]: 41% +/− 14

TG as % C Compd 1 [1, 5]: 68 % C
Compound: […]-Ionone

Compound: COc1cc(NS(C)(=O)=O)ccc1Nc1c2ccccc2nc2ccccc12 [Amsacrine, reference compound]
TG as % C Compd 1 [1, 5]: 79 % C | TG as % C Compd 2 [1, 8]: 79 % C | IC20 [1, 4]: 3.3 µM | TG as % C Compd 1 ([1]; compound 1 alone, with retinol): 102 % C

Compound: CC(C)CCCCCCCCCCCCCCC(=O)O [Isostearic Acid]
TG as % C Compd 2 [1, 8]: 87 % C | IC20 [1, 4]: 62.3 µM | TG as % C Compd 2 ([1]; compound 2 alone, with retinol): 146 % C

Compound: CC(C)=CCC/C(C)=C/CO [Geraniol]
% Inhibition ARAT (10 jm) [2]: 13% | % Inhibition ARAT (100 jm) [2]: 32% | TG as % C, Compd 3 [1, 3]: 105 % C | IC20 [1, 4]: 4720 µM

Compound: CC(/C=C/C=C(\C)C(=O)O)=C\C=C\C=C(C)\C=C\C=C(/C)C(=O)O [Crocetin]
% Inhibition ARAT (10 jm) [2]: 15% | % Inhibition ARAT (100 jm) [2]: 34% | TG as % C, Compd 3 [1, 3]: 90 % C | IC20 [1, 4]: 25.2 µM

Compound: CC(C)=CCC/C(C)=C/CC/C(C)=C/CC/C(C)=C/CO [Geranyl Geraniol]
% Inhibition ARAT (10 jm) [2]: 38% +/− 12 | % Inhibition ARAT (100 jm) [2]: 81% +/− 6

TG as % C Compd 2 ([1]; compound 2 alone, with retinol): 102 % C
Compound: O=C1CCc2ccccc2N1 [3,4-dihydro-2 quinolinone, 3,4,-Dihydro-2(1H)-quinolinone(Hydrocarbostyril)]

Compound: CCCCC/C=C\C/C=C\C/C=C\C/C=C\CCCC(=O)[O-].[Na+] [Arachidonic Acid (Na+ salt)]
TG as % C, Compd 3 [1, 3]: 78 % C

IC50 [1, 6]: 130 µM
Compound: O=C(O)CCCCCCCCCCCCCCC(=O)O [Hexadecanedioic Acid]
TG as % C Compd 2 [1, 8]: 90 % C | IC20 [1, 4]: 84 µM | TG as % C Compd 2 ([1]; compound 2 alone, with retinol): 125 % C

Compound: CC(C)=CCCC(C)=CC=O [Citral]
% Inhibition ARAT (100 jm) [2]: 20%

Compound: Coco Trimethyl-ammonium Cl—
% Inhibition ARAT (100 jm) [2]: 27%

From US8409550B2, “Method for treating skin with retinoids and retinoid boosters” (Unilever Home & Personal Care, USA, Division of Conopco, …, priority 2000, dated 2013)
